Measurements: US7754654B2, “Substituted spirocyclic ketoenols” (Bayer CropScience AG, priority 2002, dated 2010)
Values joined by “and” are separate entries in the source; they are usually repeats but may differ in a detail not shown here. Equal values may be shown once.

Tests used:
Assay type in all cases: in vivo
[1] = test system: peach aphid (Myzus persicae); experiment: Myzus test (cabbage leaf dip)
Procedure: To produce a suitable preparation of active compound, 1 part by weight of active compound is mixed with the stated amounts of solvent and emulsifier, and the concentrate is diluted with emulsifier-containing water to the desired concentration. Cabbage leaves (Brassica oleracea) which are heavily infested by the peach aphid (Myzus persicae) are treated by being dipped into the preparation of active compound of the desired concentration. After the desired period of time, the kill in % is determined. 100% means that all aphids have been killed; 0% means that none of the aphids have been killed.

[2] = test system: larvae of the mustard beetle (Phaedon cochleariae); experiment: Phaedon larvae test (cabbage leaf dip); conditions: 1000 ppm
Procedure: (§1) To produce a suitable preparation of active compound, 1 part by weight of active compound is mixed with the stated amounts of solvent and emulsifier, and the concentrate is diluted with emulsifier-containing water to the desired concentration. Cabbage leaves (Brassica oleracea) are treated by being dipped into the preparation of active compound of the desired concentration and are populated with larvae of the mustard beetle (Phaedon cochleariae) while the leaves are still moist. After the desired period of time, the kill in % is determined. 100% means that all beetle larvae have been killed; 0% means that none of the beetle larvae have been killed.

[3] = test system: greenhouse red spider mite (Tetranychus urticae); experiment: Tetranychus test (OP-resistant/dip treatment); conditions: 100 ppm; bean plants dipped
Procedure: To produce a suitable preparation of active compound, 1 part by weight of active compound is mixed with the stated amounts of solvent and emulsifier, and the concentrate is diluted with emulsifier-containing water to the desired concentration. Bean plants (Phaseolus vulgaris) which are heavily infested by all stages of the greenhouse red spider mite (Tetranychus urticae) are dipped into a preparation of active compound of the desired concentration. After the desired period of time, the effect in % is determined. 100% means that all spider mites have been killed; 0% means that none of the spider mites have been killed.

[4] = test system: larva (L3) of the army worm (Spodoptera frugiperda); experiment: Spodoptera frugiperda test/synthetic feed; conditions: 1000 ppm; synthetic feed
Procedure: To produce a suitable preparation of active compound, 1 part by weight of active compound is mixed with the stated amounts of solvent and emulsifier, and the concentrate is diluted with emulsifier-containing water to the desired concentration. A stated amount of the preparation of active compound of the desired concentration is pipetted onto a standardized amount of synthetic feed. In 6 replications, in each case one larva (L3) of the army worm (Spodoptera frugiperda) is placed onto the feed. After the desired period of time, the kill in % is determined. 100% means that all animals have been killed; 0% means that none of the animals have been killed.

[5] = test system: caterpillars of the army worm (Spodoptera frugiperda); experiment: Spodoptera frugiperda test (cabbage leaf dip)
Procedure: as §1, with “caterpillars” for “larvae”, “army worm (Spodoptera frugiperda)” for “mustard beetle (Phaedon cochleariae)”, “caterpillars” for “beetle larvae”

Alopecurus [6] = experiment: Pre-emergence test; conditions: after three weeks
Procedure: (§2) To produce a suitable preparation of active compound, 1 part by weight of active compound is mixed with the stated amount of solvent, the stated amount of emulsifier is added and the concentrate is diluted with water to the desired concentration. Seeds of the test plants are sown in normal soil. After about 24 hours, the soil is sprayed with the preparation of active compound such that the particular amounts of active compound desired are applied per unit area. The concentration of the spray liquor is chosen such that the particular amounts of active compound desired are applied in 1000 l of water/ha. After three weeks, the degree of damage to the plants is rated in % damage in comparison to the development of the untreated control. The figures denote: • 0%=no effect (like untreated control) • 100%=total destruction

Amaranthus [7] = experiment: Pre-emergence test; conditions: after three weeks
Procedure: as §2

Setaria [8] = experiment: Pre-emergence test; conditions: after three weeks
Procedure: as §2

Meloidogyne incognita = experiment: Meloidogyne test (gall formation on lettuce roots); conditions: 20 ppm; nematicidal action by gall formation, 100% = no galls
Procedure: To produce a suitable preparation of active compound, 1 part by weight of active compound is mixed with the stated amounts of solvent and emulsifier, and the concentrate is diluted with water to the desired concentration. Containers are filled with sand, solution of active compound, Meloidogyne incognita egg/larvae suspension and lettuce seeds. The lettuce seeds germinate and the plants develop. On the roots, galls are formed. After the desired period of time, the nematicidal action is determined in % by the gall formation. 100% means that no galls have been found; 0% means that the number of galls on the treated plants corresponds to that of the untreated control.

Botrytis cinerea = experiment: Botrytis test (bean)/protective; conditions: 500 g/ha, protective, 2 days after inoculation
Procedure: To produce a suitable preparation of active compound, 1 part by weight of active compound is mixed with the stated amounts of solvent and emulsifier, and the concentrate is diluted with water to the desired concentration. To test for protective activity, young plants are sprayed with the preparation of active compound at the stated application rate. After the spray coating has dried on, 2 small pieces of agar colonized by Botrytis cinerea are placed onto each leaf. The inoculated plants are placed in a dark chamber at about 20° C. and 100% relative atmospheric humidity. 2 days after the inoculation, the size of the infested areas of the leaves is evaluated. 0% means an efficacy which corresponds to that of the control, whereas an efficacy of 100% means that no infection is observed.

Abutilon = experiment: Post-emergence test; conditions: 250 g of ai/ha, after three weeks
Procedure: as §2, with “Test plants” for “Seeds”, “a height of 5-15 cm” for “the test plants”, “are” for “are sown in normal soil. After about 24 hours, the soil is”

Amaranthus [9] = experiment: Post-emergence test; conditions: 250 g of ai/ha, after three weeks
Procedure: as §2, with “Test plants” for “Seeds”, “a height of 5-15 cm” for “the test plants”, “are” for “are sown in normal soil. After about 24 hours, the soil is”

Avena fatua [10] = experiment: Post-emergence test; conditions: 250 g of ai/ha, after three weeks
Procedure: as §2, with “Test plants” for “Seeds”, “a height of 5-15 cm” for “the test plants”, “are” for “are sown in normal soil. After about 24 hours, the soil is”

Setaria [11] = experiment: Post-emergence test; conditions: 250 g of ai/ha, after three weeks
Procedure: as §2, with “Test plants” for “Seeds”, “a height of 5-15 cm” for “the test plants”, “are” for “are sown in normal soil. After about 24 hours, the soil is”

Sinapis [12] = experiment: Post-emergence test; conditions: 250 g of ai/ha, after three weeks
Procedure: as §2, with “Test plants” for “Seeds”, “a height of 5-15 cm” for “the test plants”, “are” for “are sown in normal soil. After about 24 hours, the soil is”

Sugar beet = experiment: Post-emergence test; conditions: 250 g of ai/ha, after three weeks
Procedure: as §2, with “Test plants” for “Seeds”, “a height of 5-15 cm” for “the test plants”, “are” for “are sown in normal soil. After about 24 hours, the soil is”

Digitaria = experiment: Pre-emergence test; conditions: 125 g of ai/ha, after three weeks
Procedure: as §2

Eriochloa = experiment: Pre-emergence test; conditions: 125 g of ai/ha, after three weeks
Procedure: as §2

Ipomoea = experiment: Pre-emergence test; conditions: 125 g of ai/ha, after three weeks
Procedure: as §2

Lolium = experiment: Pre-emergence test; conditions: 125 g of ai/ha, after three weeks
Procedure: as §2

Maize = experiment: Pre-emergence test; conditions: 125 g of ai/ha, after three weeks
Procedure: as §2

Avena fatua [13] = experiment: Pre-emergence test; conditions: 125 g of ai/ha, after three weeks
Procedure: as §2

Sinapis [14] = experiment: Pre-emergence test; conditions: after three weeks
Procedure: as §2

Echinochloa = experiment: Pre-emergence test; conditions: 2000 g of ai/ha, after three weeks
Procedure: as §2

Alopecurus [15] = experiment: Post-emergence test; conditions: 250 g of ai/ha, after three weeks
Procedure: as §2, with “Test plants” for “Seeds”, “a height of 5-15 cm” for “the test plants”, “are” for “are sown in normal soil. After about 24 hours, the soil is”

## Cc1cc(C)c(C2=C(O)C3(CCC(OCCOC(C)C)CC3)NC2=O)c(C)c1C (single isomer, unassigned) [Ex. I-1-a-2]
[1]; 1000 ppm
  Kill rate in % after 6d: 100%
[2]
  Kill rate in % after 7d: 100%
[3]
  Kill rate in % after 7d: 95%

## Cc1ccc(C)c(C2=C(OC(=O)C(C)C)C3(CCC(OCc4ccccc4)CC3)NC2=O)c1 (stereo not drawn) [Ex. I-1-b-1]
[4]
  Kill rate in % after 7d: 100%

## COCCOC1CCC2(CC1)NC(=O)C(c1cc(C)ccc1C)=C2O (single isomer, unassigned) [Ex. I-1-a-5]
[1]; 1000 ppm
  Kill rate in % after 6d: 98%
[5]; 1000 ppm
  Kill rate in % after 7d: 100%

## COCCOC1CCC2(CC1)NC(=O)C(c1c(C)cc(C)cc1C)=C2O (single isomer, unassigned) [Ex. I-1-a-4]
[1]; 1000 ppm
  Kill rate in % after 6d: 90%
[5]; 1000 ppm
  Kill rate in % after 7d: 100%
Alopecurus [6]; 250 g of ai/ha
  % damage: 80%
Amaranthus [7]; 250 g of ai/ha
  % damage: 95%
Setaria [8]; 250 g of ai/ha
  % damage: 100%

## Cc1cc(C)c(C2=C(O)C3(CCC(OCc4ccc(Cl)cc4)CC3)NC2=O)c(C)c1C (single isomer, unassigned) [Ex. I-1-a-26]
Meloidogyne incognita
  Effect in % after 14d: 100%
[2]
  Kill rate in % after 7d: 100%

## Cc1ccc(-c2ccc(Cl)cc2)cc1C1=C(O)C2(CCC(OCc3ccc(Cl)cc3)CC2)NC1=O (single isomer, unassigned) [Ex. I-1-a-30]
[1]; 500 ppm
  Kill rate in % after 6d: 100%
[3]
  Kill rate in % after 7d: 99%
Botrytis cinerea
  % efficacy: 100%

## COCCOC1CCC2(CC1)NC(=O)C(c1c(C)cc(C)c(C)c1C)=C2O (single isomer, unassigned) [Ex. I-1-a-3]
[2]
  Kill rate in % after 7d: 100%
[3]
  Kill rate in % after 7d: 98%

## C=CCOC1CCC2(CC1)NC(=O)C(c1c(C)cc(Cl)cc1Cl)=C2O (single isomer, unassigned) [Ex. I-1-a-13]
Alopecurus [6]; 2000 g of ai/ha
  % damage: 95% and 90%

## Cc1cc(C)c(C2=C(O)C3(CCC(OCc4cccc(Cl)c4)CC3)NC2=O)c(C)c1 (single isomer, unassigned) [Ex. I-1-a-23]
Abutilon
  % damage: 80%
Amaranthus [9]
  % damage: 90%
Avena fatua [10]
  % damage: 80%
Setaria [11]
  % damage: 95%
Sinapis [12]
  % damage: 90%
Sugar beet
  % damage: 0%
Digitaria
  % damage: 100%
Eriochloa
  % damage: 99%
Ipomoea
  % damage: 80%
Lolium
  % damage: 80%
Maize
  % damage: 0%
Setaria [8]; 125 g of ai/ha
  % damage: 95%

## CCOC(=O)OC1=C(c2c(C)cc(C)cc2C)C(=O)NC12CCC(OCc1ccccc1)CC2 (single isomer, unassigned) [Ex. I-1-c-3]
Alopecurus [6]; 125 g of ai/ha
  % damage: 90%
Avena fatua [13]
  % damage: 70%
Setaria [8]; 125 g of ai/ha
  % damage: 100%
Sinapis [14]; 125 g of ai/ha
  % damage: 90%

## Cc1cc(C)c(C2=C(O)C3(CCC(OCc4ccccc4Cl)CC3)NC2=O)cc1C (single isomer, unassigned) [Ex. I-1-a-20]
[2]
  Kill rate in % after 7d: 100%

## C=CCOC1CCC2(CC1)NC(=O)C(c1c(C)cc(Cl)cc1Cl)=C2O (single isomer, unassigned) [Ex. I-1-a-12]
[5]; 500 ppm
  Kill rate in % after 7d: 100%
Amaranthus [7]; 2000 g of ai/ha
  % damage: 90%

## Cc1cc(C)c(C2=C(O)C3(CCC(OCc4cccc(Cl)c4)CC3)NC2=O)c(C)c1C (single isomer, unassigned) [Ex. I-1-a-22]
Meloidogyne incognita
  Effect in % after 14d: 98%
[2]
  Kill rate in % after 7d: 100%

## C=CCOC1CCC2(CC1)NC(=O)C(c1c(C)cc(Cl)cc1C)=C2O (single isomer, unassigned) [Ex. I-1-a-11]
[5]; 500 ppm
  Kill rate in % after 7d: 100%
[3]
  Kill rate in % after 7d: 95%
Echinochloa
  % damage: 100%
Sinapis [14]; 2000 g of ai/ha
  % damage: 90%

## O=C1NC2(CCC(OCc3ccc(Cl)cc3)CC2)C(O)=C1c1cc(-c2ccc(Cl)cc2)ccc1Cl (single isomer, unassigned) [Ex. I-1-a-31]
Meloidogyne incognita
  Effect in % after 14d: 95%
[5]; 500 ppm
  Kill rate in % after 7d: 100%
[3]
  Kill rate in % after 7d: 99%

## Cc1cc(C)c(C2=C(O)C3(CCC(OCC4CCCO4)CC3)NC2=O)c(C)c1C (single isomer, unassigned) [Ex. I-1-a-6]
[2]
  Kill rate in % after 7d: 100%

## Cc1ccc(C)c(C2=C(O)C3(CCC(OCc4ccccc4Cl)CC3)NC2=O)c1 (single isomer, unassigned) [Ex. I-1-a-21]
[2]
  Kill rate in % after 7d: 100%

## Cc1cc(C)c(C2=C(O)C3(CCC(OCC4CCCO4)CC3)NC2=O)cc1C (single isomer, unassigned) [Ex. I-1-a-8]
[5]; 1000 ppm
  Kill rate in % after 7d: 100%

## C=CCOC1CCC2(CC1)NC(=O)C(c1c(C)cc(Cl)cc1C)=C2OC(=O)OCC (single isomer, unassigned) [Ex. I-1-c-2]
Meloidogyne incognita
  Effect in % after 14d: 100%
[1]; 500 ppm
  Kill rate in % after 6d: 95%

## Cc1ccc(C)c(C2=C(O)C3(CCC(OCC4CCCO4)CC3)NC2=O)c1 (single isomer, unassigned) [Ex. I-1-a-9]
[2]
  Kill rate in % after 7d: 100%

## Cc1ccc(C)c(C2=C(O)C3(CCC(OCc4cccc(Cl)c4)CC3)NC2=O)c1 (single isomer, unassigned) [Ex. I-1-a-25]
[2]
  Kill rate in % after 7d: 100%

## Cc1cc(Cl)cc(C)c1C1=C(O)C2(CCC(OCC3CCCO3)CC2)NC1=O (single isomer, unassigned) [Ex. I-1-a-10]
[2]
  Kill rate in % after 7d: 100%
Alopecurus [15]
  % damage: 70%
Amaranthus [9]
  % damage: 90%
Setaria [11]
  % damage: 95%
Sinapis [12]
  % damage: 80%
Sugar beet
  % damage: 0%
